How the values were obtained:
ACTA2 = experiment: Spontaneous and TGFB1-induced ACTA2 expression in lung fibroblasts (RTPCR, cell-based ELISA); parameters: species or system human
Method: (§1) Primary human normal lung fibroblasts (CCD-16Lu cells, American Type Culture Collection, Manassas, Va., USA) were grown in DMEM-Glutamax medium supplemented with 10% fetal bovine serum and penicillin/streptomycin (Thermofisher, Villebon-sur-Yvette, France), at 37° C. with 5% CO2. Experiments were performed between passages 7 and 12, when cells reached 70% confluency. Fibroblasts were treated either with 100 μM CK666 (Tocris, Lille, France) or 1/1000 dimethylsulfoxide (DMSO, Sigma,St Quentin Fallavier, France) as a control. In a second set of experiments, fibroblasts were transfected with 4 nM of either short interfering RNAs targeting ARPC2 (siARPC2, Silencer Select, Thermofisher) or control RNAs (siControl), using the Lipofectamine RNAimax reagent (Thermofisher). For cell growth assays, 50 000 cells/well were plated in 12-well plates, grown for 4 days, detached with 5% trypsin and counted using Kova Glasstic counting slides (Thermofisher). For differentiation assays, cells were plated in 12-well plates, grown to 70% confluency, treated for 24 h with siControl or siARPC2 when appropriate, starved of serum for 24 h, and treated with either CK666 or DMSO 30 minutes before treatment with either 5 ng/ml recombinant human TGFB1 (R&D Systems, Lille, France) of control solvent for 48h. Cell proteins were recovered in 100 μl lysis buffer (50 mM Tris HCl pH7.4, 150 mM NaCl, 0.1% SDS, 0.5% sodium deoxycholate, 1% Triton X-100) with 1% protease inhibitor (P8340, Sigma) and quantitated by the BiCinchoninic acid Assay (Pierce, Thermofisher); mRNA was extracted using the GeneJET RNA Purification Kit (Thermofisher).
For cell-based ELISA, cells were grown in 12-well plates, fixed with 4% paraformaldehyde for 15 min, permeabilized with 0.5% Triton X-100 in PBS, blocked with 1% bovine albumin, incubated overnight at 4° C. with an ACTA2 primary antibody (A2547, dilution 1/1000, Sigma), and sequentially incubated with an anti-mouse biotinylated antibody (Vector, dilution 1/400), streptavidin-horseradish peroxidase (R&D Systems), and Tetramethylbenzidine substrate (Sigma). The reaction was stopped with […] and absorbance readings were taken at 450 nm with 570 nm as a reference wavelength. […]
(§2) RNAs were reverse-transcribed using the First Strand cDNA Synthesis Kit (Thermofisher). Transcripts were quantified by RTPCR (Sybr select Master Mix, Thermofisher) and expressed relative to UBC (human samples) or Gapdh (mouse samples) as an endogenous control using the 2^−ΔCt method.

[1] = test system: Primary human normal lung fibroblasts (CCD-16Lu cells); experiment: Lung fibroblast cell growth assay; format: cell-based; conditions: CK666 100 μM vs DMSO, Day 4
Method: as §1, with “For differentiation assays, cells were plated in 12-well plates, grown to 70% confluency, treated for 24 h with siControl or siARPC2 when appropriate, starved of serum for 24 h, and treated with either CK666 or DMSO 30 minutes before treatment with either 5 ng/ml recombinant human TGFB1 (R&D Systems, Lille, France) of control solvent for 48h.” left out

COL1 = experiment: Spontaneous and TGFB1-induced COL1 expression in lung fibroblasts (RTPCR, ELISA); format: cell-based, human; conditions: CK666 100 μM
Method: as §1
Procollagen-1 (COL1) and Glyćeraldéhyde-3-phosphate déshydrogenase (GAPDH) were quantified by ELISA (DY6220 and DYC5718, R&D Systems). COL1 was expressed relative to GAPDH as an endogenous control.
as §2

[2] = test system: G/F actin ratio in lung fibroblasts (CCD-16Lu cells); experiment: Determination of G- and F-actin levels in lung fibroblasts; format: cell-based, human
Method: Primary human normal lung fibroblasts (CCD-16Lu cells, American Type Culture Collection, Manassas, Va., USA) were grown in DMEM-Glutamax medium supplemented with 10% fetal bovine serum and penicillin/streptomycin (Thermofisher, Villebon-sur-Yvette, France), at 37° C. with 5% CO2. Experiments were performed between passages 7 and 12, when cells reached 70% confluency. Fibroblasts were treated either with 100 μM CK666 (Tocris, Lille, France) or 1/1000 dimethylsulfoxide (DMSO, Sigma,St Quentin Fallavier, France) as a control. […] For cell growth assays, 50 000 cells/well were plated in 12-well plates, grown for 4 days, detached with 5% trypsin and counted using Kova Glasstic counting slides (Thermofisher). […] Cell proteins were recovered in 100 μl lysis buffer (50 mM Tris HCl pH7.4, 150 mM NaCl, 0.1% SDS, 0.5% sodium deoxycholate, 1% Triton X-100) with 1% protease inhibitor (P8340, Sigma) and quantitated by the BiCinchoninic acid Assay (Pierce, Thermofisher); mRNA was extracted using the GeneJET RNA Purification Kit (Thermofisher).
500 000 cells were seeded in 75 cm2 flasks and treated with either CK666 or DMSO for 24 h. […] Supernatant (G-actin) and pellet (F-actin) samples were analyzed by immunoblotting on polyvinylidene fluoride membranes using a beta-actin primary antibody (Sigma).

[3] = test system: bleomycin-induced lung fibrosis; format: in vivo, C57BL6-J mice
Method: Male, 8-week old C57BL6-J mice (Janvier, Le Genest-St-Ile, France) were treated with an orotracheal instillation of either 120 μg bleomycin (Laboratoires Bellon, France) or saline, under isoflurane anesthesia. In a first set of experiments, mice were treated from the 7th to the 14th day following instillation with daily subcutaneous injections of either 5 mg/kg of the Arp2/3 inhibitor CK666 (Tocris Biochemicals, Bristol, UK) in 100 μl of 40% Dimethylsulfoxide in saline (vehicle) (M. Park et al. 2013), or vehicle alone. Mice were monitored and weighted daily and their diet was supplemented with gel-based food (Dietgel Recovery gels, ClearH2O, Westbrook, Me., USA). On the 14th day following bleomycin, mice were anesthetized with 300 mg/kg Ketamine and 30 mg/kg xylazine, and euthanized by exsanguination. Bronchoalveolar lavage was performed with 2×1 ml saline. Lung were either snap-frozen in liquid nitrogen or inflation-fixed in 4% formaldehyde. Inhibition of the Arp2/3 complex in vivo. The study protocol was approved by the regional ethics board (APAFIS#5669-20 16061413402331).
Total insoluble collagen was quantified in left lung homogenates (Sircol Insoluble collagen Assay, Biocolor, Carrickfergus, UK). Soluble procollagen-1 was quantified in homogenates of the right upper lung lobe by ELISA (DY6220, R&D Systems). RNAs were extracted from the right middle lung lobe (Allprep, Qiagen) and reverse-transcribed (First Strand cDNA Synthesis Kit, Thermofisher). Transcripts associated with fibrogenesis were quantified by RTPCR (Sybr select Master Mix, Thermofisher) and expressed relative to Gapdh as an endogenous control. The activity of enzymes key to collagen polymerization and degradation was measured in lysates of right lower lobe using fluorimetric assays specific for lysil oxidase (Amplite™ Fluorimetric Lysyl Oxidase Assay, AAT Bioquest, Sunnyvale, Calif., USA) and collagenase (fluorimetric DQ collagen type 1, Sigma Aldrich, St Quentin-Fallavier, France). Clostridium histolyticum collagenase (Sigma-Aldrich) was used as a positive control for collagenase assays. Total BALF proteins were measured with the BCA protein assay (Thermofisher). BALF cells were counted using a hemocytometer. For histological analysis, 5-μm sections of paraffin-embedded lung were stained with Masson's trichrome stain.

[4] = bleomycin-instilled mice, CK666 vs vehicle
[5] = lung lysates, bleomycin-instilled mice, CK666 vs vehicle
[6] = mouse lungs, CK666 5 mg/kg daily day 7-14, RTPCR

For `Cc1[nH]c2ccccc2c1CCNC(=O)c1ccccc1F` [CK666], the “TGFB1-driven increase in ACTA2 mRNA” value (ACTA2; TGFB1 5 ng/ml 48 h, RTPCR) was “partially”, the “TGFB1-driven increase in ACTA2 protein” value (ACTA2; TGFB1 5 ng/ml 48 h, cell-based ELISA) was “totally” and the “expression of ACTA2 mRNA” value (ACTA2; unstimulated lung fibroblasts, CK666 100 μM, RTPCR) was “did not modulate”. For the same compound, the “expression of ACTA2 protein” value (ACTA2; unstimulated lung fibroblasts, CK666 100 μM, cell-based ELISA) was “did not modulate”, the “reduction of cell growth (fold-increase in cell number relative to seeding)” value [1] was 36% and the “reduction of the TGFB1-driven increase in COL1 protein” value (COL1; TGFB1 5 ng/ml, ELISA, trend, p=0.13) was 30%. For the same compound, the “TGFB1-driven increase in COL1A1 mRNA” value (COL1; TGFB1 5 ng/ml, RTPCR) was “did not modulate”, the “TGFB1-driven increase in COL1A2 mRNA” value (COL1; TGFB1 5 ng/ml, RTPCR) was “did not modulate” and the “reduction of COL1/GAPDH protein ratio” value (COL1; unstimulated cells, ELISA) was 54%. The “expression of COL1A1 mRNA” value (COL1; unstimulated cells, RTPCR) was “did not modulate”, the “expression of COL1A2 mRNA” value (COL1; unstimulated cells, RTPCR) was “did not modulate” and the “TGFB1-induced increase in the G/F actin ratio” value ([2]; TGFB1 5 ng/ml, CK666 100 μM or 4 nM siARPC2) was “inhibited”. For the same compound, the G/F actin ratio ([2]; unstimulated lung fibroblasts, CK666 100 μM vs DMSO or 4 nM siARPC2 vs siControl) was “increased”, the “reduction of lung content in procollagen-1” value ([3]; bleomycin-instilled mice, CK666 5 mg/kg daily day 7-14 vs vehicle, ELISA) was 55% and the “bleomycin-induced increase in BALF total protein” value [3, 4] was “reduced neither”. For the same compound, the bleomycin-induced weight loss [3, 4] was “reduced neither”, the “lung levels of LOX mRNA” value [3, 4] was “did not reduced” and the “lung levels of LOXL2 mRNA” value [3, 4] was “did not reduced”. The “lung levels of TG2 mRNA” value [3, 4] was “did not reduced”, the “bleomycin-induced increase in lung Collal mRNA” value ([3]; bleomycin-instilled mice, CK666 vs vehicle, RTPCR relative to Gapdh) was “did not reduce” and the “reduction of lung insoluble collagen” value ([3]; bleomycin-instilled mice, left lung, CK666 5 mg/kg daily day 7-14 vs vehicle, Sircol assay) was 20%. The “bleomycin-induced increase in lung lysyl oxidase activity” value [3, 5] was “not modified”, the lung collagenase activity [3, 5] was “no effect” and the “lung expression of Arp2 mRNA” value [3, 6] was “increased expression”. For the same compound, the “lung expression of ArpCla mRNA” value [3, 6] was “increased expression”, the “lung expression of Arpc3 mRNA” value [3, 6] was “increased expression” and the lung histology ([3]; mouse, in vivo) was “did not result in modifications of lung histology”.
